According to patent publication US12030903B2, “Antiviral compounds” (Gilead Sciences, Inc., priority 2020, dated 2024):

Assays:
[1] = test system: Dengue 2, New Guinea strain (NGC); assay: DENV-2 moDC EC50 (qPCR of viral RNA in infected moDCs); format: cell-based, New Guinea strain (NGC); human moDCs; details: Dengue virus, human moDCs infected with Dengue 2 NGC, MOI=0.1, 48 hours
Experimental: Example 82. DENV-2 moDC EC50
Human monocyte-derived dendritic cells (moDCs) were derived from CD14+ monocytes (AllCells) cultured in Human Mo-DC Differentiation medium containing GM-CSF and IL-4 (Miltenyi Biotec). On day 7, moDCs were harvested by mechanical disruption, washed and suspended in serum-free RPMI. moDCs were infected with Vero-derived Dengue 2, New Guinea strain (NGC) at a MOI=0.1 for two hours in serum-free RPMI with gentle agitation at 37° C. Cells were washed and resuspended in 10% serum-containing RPMI (Gibco, supplemented with sodium pyruvate, NEAA, Penicillin-Streptomycin). […] were plated in triplicate in 96-well plates with compounds dispensed at graded doses (Hewlett-Packard D300 Digital Dispenser). All wells were normalized to 0.25% DMSO. At 48 hours, cells were washed with 1×PBS and all supernatants removed. Total RNA was extracted using RNEasy 96 plates (Qiagen) and used to generate first-strand cDNA using XLT cDNA 5× Supermix (QuantaBio). cDNA was used as a template in a Taqman qPCR duplex reaction specific to DENV2 viral and GAPDH gene expression. EC50 values were determined using Prism Graphpad software, with normalization to a positive control and no compound negative control wells.

[2] = moDC CC50 (CellTiter Glo viability); format: cell-based, Human; details: human, uninfected moDCs
Experimental: Human monocyte-derived dendritic cells (moDCs) were derived from CD14+ monocytes (AllCells) cultured in Human Mo-DC Differentiation medium containing GM-CSF and IL-4 (Miltenyi Biotec). On day 7, moDCs were harvested by mechanical disruption, washed and cultured in triplicate at […] cells/well in 96-well plates with compounds dispensed at graded doses (Hewlett-Packard D300 Digital Dispenser). All wells were normalized to 0.25% DMSO. After 48 hours, CellTiter Glo (Promega) was added and incubated for 10 minutes at room temp before reading on a luminometer. % viability curves were calculated against no compound and no cell control wells. CC50 values were determined using Prism Graphpad software.

[3] = test system: Dengue serotype 2 New Guinea C (NGC) strain; assay: DENV-2 Huh-7 EC50 (qPCR of viral RNA in infected Huh7 cells); format: cell-based; details: Dengue virus, DENV2, Huh-7, Huh7 cells infected with Dengue serotype 2 NGC, MOI=0.1, 48 hours
Experimental: Huh7 (Human hepatocarcinoma 7) cells were maintained in 10% FCS-containing DMEM complete media. On the day of the assay, cells were trypsinized (0.1% Trypsin-EDTA), washed and infected for 2 hours in serum-free DMEM with Dengue serotype 2 New Guinea C (NGC) strain at MOI=0.1 with gentle agitation at 37° C. After 2 hours, cells were washed with serum-free media and suspended in 10% FCS-containing DMEM (Gibco, supplemented with sodium pyruvate, NEAA, Penicillin-Streptomycin). 10^5 cells were plated in triplicate in 96-well plates with compounds dispensed at graded doses (Hewlett-Packard D300 Digital Dispenser). All wells were normalized to 0.25% DMSO. At 48 hours, cells were washed with 1× PBS and all supernatants removed. Total RNA was extracted using RNEasy 96 plates (Qiagen) and used to generate first-strand cDNA using XLT cDNA 5× Supermix (QuantaBio). cDNA was used as a template in a Taqman qPCR duplex reaction specific to DENV2 viral and GAPDH gene expression. EC50 values were determined using Prism Graphpad software, with normalization to a positive control and no compound negative control wells.

[4] = Huh-7 CC50 (CellTiter Glo viability); format: cell-based, Human; details: human, Huh7 hepatocarcinoma cells
Experimental: Human hepatocarcinoma 7 (Huh7) cells were maintained in 10% FCS-containing complete DMEM. On day of assay, cells were trypsinized with 0.1% Trypsin-EDTA, washed and cultured in triplicate at 1-2×10^4 cells/well in 96-well plates with compounds dispensed at graded doses (Hewlett-Packard D300 Digital Dispenser). All wells were normalized to 0.25% DMSO. After 48 hours, CellTiter Glo (Promega) was added and incubated for 10 minutes at room temp before reading on a luminometer. % viability curves were calculated against no compound and no cell control wells. CC50 values were determined using Prism Graphpad software.

[5] = test system: RSV strain A2; assay: RSV HEp-2 EC50 (infectious cytopathic cell protection assay); format: cell-based, RSV strain A2; HEp-2 cells; details: human respiratory syncytial virus, HEp-2, 96 h, read-out: RSV Hep-2 EC50
Experimental: Example 86. RSV HEp-2 EC50
Antiviral activity against RSV is determined using an infectious cytopathic cell protection assay in HEp-2 cells. In this assay, compounds inhibiting viral infection and/or replication produce a cytoprotective effect against the virus-induced cell killing that can be quantified using a cell viability reagent. The techniques used here are novel adaptations of methods described in published literature (Chapman et al., Antimicrob Agents Chemother. 2007, 51(9):3346-53.)
HEp-2 cells are obtained from ATCC (Manassas, VI) and maintained in MEM media supplemented with 10% fetal bovine serum and penicillin/streptomycin. Cells are passaged twice a week and kept at subconfluent stage. Commercial stock of RSV strain A2 (Advanced Biotechnologies, Columbia, MD) is titered before compound testing to determine the appropriate dilution of the virus stock that generates desirable cytopathic effect in HEp-2 cells.
For antiviral tests, HEp-2 cells are grown in large cell culture flasks to near confluency but not fully so. The compounds to be tested are prediluted in DMSO in 384-well compound dilution plates, either in an 8 or 40 sample per plate standardized dose response format. 3-fold serial dilution increments of each test compound are prepared in the plates and test samples are transferred via acoustic transfer apparatus (Echo, Labcyte) at 100 nL per well into cell culture assay 384-well plates. Each compound dilution is transferred in single or quadruplicate samples into dry assay plates, which are stored until assay is ready to go. The positive and negative controls are laid out in opposite on ends of the plate in vertical blocks (1 column).
Subsequently, an infectious mixture is prepared using an appropriate dilution of virus stock previously determined by titration with cells at a density of 50,000/mL and 20 uL/well is added to test plates w/compounds via automation (uFlow, Biotek). Each plate includes negative and positive controls (16 replicates each) to create 0% and 100% virus inhibition standards, respectively. Following the infection with RSV, testing plates are incubated for 4 days in a 37° C. cell culture incubator. After the incubation, a cell viability reagent, Cell TiterGlo (Promega, Madison, WI) is added to the assay plates, which are incubated briefly, and a luminescent readout is measured (Envision, Perkin Elmer) in all the assay plates. The RSV-induced cytopathic effect, percentage inhibition, is determined from the levels of remaining cell viability. […] Various potent anti-RSV tool compounds are used as positive controls for antiviral activity.

[6] = HEp-2 CC50 (cytotoxicity in uninfected HEp-2 cells); format: cell-based; details: human, CellTiter Glo
Experimental: Instead, an uninfected cell mixture at the same density is added at 20 uL/well to plates containing prediluted compounds, also at 100 nL/sample. Assay plates are then incubated for 4 days followed by a cell viability test using the same CellTiter Glo reagent addition and measurement of luminescent readouts. Untreated cell and cells treated at 2 μM puromycin (Sigma, St. Louis, MO) serve as 100% and 0% cell viability control, respectively.

CC(C)OC(=O)[C@H](C)N[P@](=O)(OC[C@@]1(CF)O[C@@H](c2ccc3c(N)ncnn23)[C@H](OC(=O)C(C)C)[C@@H]1OC(=O)C(C)C)Oc1ccccc1 [Example 23, (2R,3S,4S,5S)-5-(4-aminopyrrolo[2,1-f][1,2,4]triazin-7-yl)-2-(fluoromethyl)-2-((((S)-(((S)-1-isopropoxy-1-oxopropan-2-yl)amino)(phenoxy)phosphoryl)oxy)methyl) tetrahydrofuran-3,4-diyl bis(2-methylpropanoate)]
EC50 [1]: 387 nM
CC50 at 48 h [2]: 10900 nM
EC50 [3]: 1800 nM
CC50 at 48 h [4]: > 23200 nM
EC50 [5]: 4320 nM
CC50 at 4 days [6]: 26300 nM

CCOCCOCCOC(=O)[C@H](C)NP(=O)(OC[C@@]1(CF)O[C@@H](c2ccc3c(N)ncnn23)[C@H](O)[C@@H]1O)Oc1ccccc1 (stereo partly drawn) [Example 45, 2-(2-ethoxyethoxy)ethyl ((((2R,3S,4R,5S)-5-(4-aminopyrrolo[2,1-f][1,2,4]triazin-7-yl)-2-(fluoromethyl)-3,4-dihydroxytetrahydrofuran-2-yl)methoxy)(phenoxy)phosphoryl)-L-alaninate]
EC50 [1]: > 5000 nM
CC50 at 48 h [2]: > 25000 nM
EC50 [3]: 4580 nM
CC50 at 48 h [4]: > 25000 nM
EC50 [5]: 21800 nM
CC50 at 4 days [6]: > 100000 nM

CC(C)C(=O)O[C@H]1[C@H](c2ccc3c(N)ncnn23)O[C@](CF)(COP(=O)(N[C@@H](C)C(=O)OC2CCCCC2)Oc2ccccc2)[C@H]1OC(=O)C(C)C (single isomer, unassigned) [Example 63]
EC50 [1]: 321 nM
CC50 at 48 h [2]: 5600 nM
EC50 [3]: 602 nM
CC50 at 48 h [4]: 10700 nM
EC50 [5]: 2420 nM
CC50 at 4 days [6]: 19100 nM

CCCC(CCC)COC(=O)[C@H](C)NP(=O)(OC[C@@]1(CF)O[C@@H](c2ccc3c(N)ncnn23)[C@H](O)[C@@H]1O)Oc1ccccc1 (stereo partly drawn) [Example 68, 2-propylpentyl ((((2R,3S,4R,5S)-5-(4-aminopyrrolo[2,1-f][1,2,4]triazin-7-yl)-2-(fluoromethyl)-3,4-dihydroxytetrahydrofuran-2-yl)methoxy)(phenoxy)phosphoryl)-L-alaninate]
EC50 [1]: 169 nM
CC50 at 48 h [2]: 6260 nM
EC50 [3]: 278 nM
CC50 at 48 h [4]: > 25000 nM
EC50 [5]: 141 nM
CC50 at 4 days [6]: > 100000 nM

CC(C)OC(=O)[C@H](C)N[P@](=O)(OC[C@@]1(CF)O[C@@H](c2ccc3c(N)ncnn23)[C@H](O)[C@@H]1O)Oc1ccccc1 (single isomer, unassigned) [Example 12]
EC50 [1]: 753 nM
CC50 at 48 h [2]: > 25000 nM
EC50 [3]: 453 nM
CC50 at 48 h [4]: > 25000 nM
EC50 [5]: 1370 nM
CC50 at 4 days [6]: > 100000 nM

C[C@H](NP(=O)(OC[C@@]1(CF)O[C@@H](c2ccc3c(N)ncnn23)[C@H](O)[C@@H]1O)Oc1ccccc1)C(=O)OCCC(C)(C)C (stereo partly drawn) [Example 4, 3,3-dimethylbutyl ((((2R,3S,4R,5S)-5-(4-aminopyrrolo[2,1-f][1,2,4]triazin-7-yl)-2-(fluoromethyl)-3,4-dihydroxytetrahydrofuran-2-yl)methoxy)(phenoxy)phosphoryl)-L-alaninate]
EC50 [1]: 58 nM
CC50 at 48 h [2]: 4780 nM
EC50 [3]: 132 nM
CC50 at 48 h [4]: 17800 nM
EC50 [5]: 29 nM
CC50 at 4 days [6]: > 100000 nM

CCC(=O)O[C@H]1[C@H](c2ccc3c(N)ncnn23)O[C@](CF)(CO[P@@](=O)(N[C@@H](C)C(=O)OC(C)C)Oc2ccccc2)[C@H]1OC(=O)CC [Example 22, (2R,3S,4S,5S)-5-(4-aminopyrrolo[2,1-f][1,2,4]triazin-7-yl)-2-(fluoromethyl)-2-((((S)-(((S)-1-isopropoxy-1-oxopropan-2-yl)amino)(phenoxy)phosphoryl)oxy)methyl) tetrahydrofuran-3,4-diyl dipropionate]
EC50 [1]: 735 nM
CC50 at 48 h [2]: > 23600 nM
EC50 [3]: 1030 nM
CC50 at 48 h [4]: > 25000 nM
EC50 [5]: 2360 nM
CC50 at 4 days [6]: 71700 nM

CCC(C)(C)COC(=O)[C@H](C)NP(=O)(OC[C@@]1(CF)O[C@@H](c2ccc3c(N)ncnn23)[C@H](O)[C@@H]1O)Oc1ccccc1 (stereo partly drawn) [Example 7, 2,2-dimethylbutyl ((((2R,3S,4R,5S)-5-(4-aminopyrrolo[2,1-f][1,2,4]triazin-7-yl)-2-(fluoromethyl)-3,4-dihydroxytetrahydrofuran-2-yl)methoxy)(phenoxy)phosphoryl)-L-alaninate]
EC50 [1]: 40 nM
CC50 at 48 h [2]: 6690 nM
EC50 [3]: 159 nM
CC50 at 48 h [4]: > 25000 nM
EC50 [5]: 24 nM
CC50 at 4 days [6]: > 100000 nM

COC(C)(C)COC(=O)[C@H](C)NP(=O)(OC[C@@]1(CF)O[C@@H](c2ccc3c(N)ncnn23)[C@H](O)[C@@H]1O)Oc1ccccc1 (stereo partly drawn) [Example 43, 2-methoxy-2-methylpropyl ((((2R,3S,4R,5S)-5-(4-aminopyrrolo[2,1-f][1,2,4]triazin-7-yl)-2-(fluoromethyl)-3,4-dihydroxytetrahydrofuran-2-yl)methoxy)(phenoxy)phosphoryl)-L-alaninate]
EC50 [1]: 626 nM
CC50 at 48 h [2]: 17900 nM
EC50 [3]: 1200 nM
CC50 at 48 h [4]: > 25000 nM
EC50 [5]: 2160 nM
CC50 at 4 days [6]: > 100000 nM

CCCCCCOC(=O)[C@H](C)N[P@@](=O)(OC[C@@]1(CF)O[C@@H](c2ccc3c(N)ncnn23)[C@H](O)[C@@H]1O)Oc1ccccc1 (single isomer, unassigned) [Example 18]
EC50 [1]: 264 nM
CC50 at 48 h [2]: > 10500 nM
EC50 [3]: 384 nM
CC50 at 48 h [4]: > 25000 nM
EC50 [5]: 1300 nM
CC50 at 4 days [6]: > 100000 nM
